Values of other authors in patent US7959936B2, “Emulsifications-stable pesticidal composition” (Syngenta Crop Protection, Inc., priority 2003, dated 2011).
Where two headings read alike, the source gives them in different places.

Columns and labels:
Rabbit [1] = tested on: Rabbit
Rabbit [2] = tested on: Rabbit; remark: listed apart in the source
Rabbit [3] = tested on: Rabbit; remark: listed apart in the source
Rabbit [4] = conditions: no unit printed for this line
[5] = 25° C

2-(thiazol-4-ine)benzimidazole [Thiabendazole]
Irritability Mucous membrane (Rabbit [1]): Non-irritating
Acute oral toxicity (LD50: mg/kg) (Rat): 3,100 mg/kg
TLm (96 hrs) (Bluegill): 19 mg/L
Solubility, 1,2-dichloroethane (20° C.): 0.81 mg/mL
Solubility, Acetone (20° C.): 2.43 mg/mL
Solubility, Ethyl acetate (20° C.): 1.49 mg/mL
Solubility, Methanol (20° C.): 8.28 mg/mL
Solubility, Xylene (20° C.): 0.13 mg/mL
Solubility, n-Hexane (20° C.): <0.01 mg/mL
Solubility, n-Octanol (20° C.): 3.91 mg/mL
Solubility, Water (20° C., pH4): 0.16 mg/mL
Solubility, Water (20° C., pH7): 0.03 mg/mL
solubility in short-chain alcohols (such as methyl alcohol): comparatively satisfactory solubility
solubility in water (water): practically insoluble
solubility in typical industrial solvents (xylene and petroleum-based solvents): only slightly soluble
Acute oral toxicity (LD50: mg/kg) (Rabbit [2]): 3,800 mg/kg
Irritability Skin (Rabbit [3]): Non-irritating
Acute percutaneous toxicity (Rabbit [4]): <2,000
Acute oral toxicity (LD50: mg/kg) (Mouse): 3,600 mg/kg
Acute oral toxicity LD50 (mg/kg) (Quail): <2,250 mg/kg
Vapor pressure [5]: Vapor pressure: 4.6 × 10^−4 mPa (25° C)
Acute oral toxicity LD50 (mg/kg) (Mallard duck): 5,620 mg/kg
TLm (96 hrs) (Rainbow trout): 0.5 mg/L
Antigenicity (Guinea pig): None
